Reference: publication PMC4632086, “Effects and possible mechanisms of action of acacetin on the behavior and eye morphology of Drosophila models of Alzheimer’s disease” (Scientific Reports, 2015)

Tests used:
Assay type in all cases: in vivo, Drosophila melanogaster
human APP = assay: Western blot, APP protein in heads of elav < APP/BACE-1 flies; conditions: 20-day-old males
Experimental: The elav < APP/BACE-1 flies were cultured from the egg stage, as described previously. The lysates were obtained from the heads of 50 male flies (20 days old) by placing the heads in 100 μL RIPA buffer (pH 8.0) containing a 1% protease inhibitor cocktail. The controls received 0.1% DMSO. The lysates were centrifuged at 14,000 rpm for 30 min at 4 °C. The protein content of the supernatant was determined using a Bradford Protein Assay kit (Sigma-Aldrich) and BSA was used as the standard. The total proteins (30 μg/sample for APP and BACE-1 detection; 70 μg/sample for Aβ detection) were mixed with an equal volume of 5× sample buffer[81] containing 40 mM of DL-dithiothreitol, boiled for 10 min, and then loaded onto 8, 10, and 12% sodium dodecyl sulfate-polyacrylamide gels using a Mini-Protean 3 electrophoresis cell (Bio-Rad, Hercules, CA, USA) for APP, APP-CTF (APP-αCTF and APP-βCTF) and AICD, BACE-1, and Aβ detection, respectively. After electrophoresis at 110 V in 2 h, the proteins from the gels were transferred onto a polyvinyl difluoride membrane (Pall Corporation, Pensacola, FL, USA) using an electroblotting apparatus. The membrane was then blocked with 5% skim milk (BD Difco, Flanklin Lakes, NJ, USA) in PBS containing 0.1% (v/v) Tween-20 (0.1% PBS-T) at room temperature for 1 h, and further incubated overnight at 4 °C with a 1:4,000 dilution of an anti-APP C-terminal antibody to detect the cleaved APP product, a 1:1,000 dilution of anti-BACE-1, and a 1:1,000 dilution of anti-amyloid (4G8). After washing with 0.1% PBS-T three times at 10 min intervals, the membranes were further incubated for 2 h with a goat anti-rabbit IgG H&L (HRP) secondary antibody at a1:4,000 dilution for APP and BACE-1 and a goat anti-mouse lgG-HRP at a 1:5,000 dilution for β-amyloid. […] The differences in protein expression were quantified using a Molecular Imager Gel Doc XR system (Bio-Rad, Hercules, CA, USA) and normalized to actin expression on the same membrane. The results are expressed as the means ± SEs of duplicate samples from three independent experiments.

elav < APP/BACE-1 flies [1] = assay: Lifespan assay; conditions: males
Experimental: Groups of 20 newly emerged male elav < APP/BACE-1 flies, cultured in vials as stated previously, were separately transferred to vials containing media supplemented with acacetin (100, 300, and 500 μM) every 4 days. The controls received 0.1% DMSO. The median life time (T1/2) was defined as the time when the survivor function equaled 50%, because median survivorship is a more reliable index than mean survival time, as described by Chakraborty and colleagues. All treatments were repeated 10 times using 20 males per replicate.

elav < APP/BACE-1 flies [2] = assay: Fly eclosion rate (pupation and emergence); conditions: 100, 300, and 500 μM
Experimental: The pupation and emergence rates were determined according to the method of Tamura et al.[78]. The elav < APP/BACE-1 flies were cultured from the egg stage in vials, as stated previously. Groups of 50 third instar larvae climbing on the wall were transferred into vials containing fresh media. The treated and control (0.1% DMSO only) flies were grown under the same conditions as those used for fly maintenance. The numbers of pupae and adults were determined. All treatments were repeated four times using 50 larvae per replicate.

human APP mRNA = assay: Real-time qRT-PCR, human APP mRNA in elav < APP/BACE-1 flies; conditions: 100, 300, and 500 μM; 20-day-old males; compared to vehicle
Experimental: Real-time qRT-PCR with SYBR Green dye was performed to determine whether acacetin affected the expression levels of the human APP and BACE-1 mRNAs in the transgenic flies. The elav < APP/BACE-1 and elav < GFP flies were cultured from the egg stage in vials, as stated previously. The controls received 0.1% DMSO only. The total RNA was extracted from 30 heads (30 mg) of male elav < APP/BACE-1 and elav < GFP flies (20 days old) using the RNeasy Mini Kit (Qiagen, Hilden, Germany) according to the manufacturer’s instructions. The residual genomic DNA was removed using RQ1 RNase-Free DNase (Promega, Fitchburg, WI, USA), and 1 μg of the total RNA from each sample was used for complementary DNA (cDNA) synthesis with an oligo (dT) 12–18 primer (Invitrogen, Carlsbad, CA, USA) according to the protocol of the SuperScript III Reverse Transcriptase Kit. Real-time qRT-PCR was performed in 96-well plates using the StepOne Plus Real-Time PCR System (Applied Biosystems, Darmstadt, Germany). […] The mRNA expression levels of the target genes were normalized to the mRNA expression level of the housekeeping gene rp 49 that encodes the Drosophila ribosomal protein 49, and analyzed by the 2^–ΔΔCT method using the StepOne Software v2.3 and DataAssist Software (Applied Biosystems). The results are expressed as the means ± SEs of duplicate samples from three independent experiments.

In the case of COc1ccc(-c2cc(=O)c3c(O)cc(O)cc3o2)cc1 [acacetin], the “APP levels, % of the control levels” value (human APP; 100 μM, not significantly different from control) is reported as 86%, the “APP levels, % of the control levels” value (human APP; 300 μM) is reported as 70% and the “APP levels, % of the control levels” value (human APP; 500 μM) is reported as 69%. For the same compound, the “median life time (T1/2)” value (elav < APP/BACE-1 flies [1]; 100 μM, vehicle 26 days, elav-Gal4/+ 36 days) was 31 days, the lifespan (elav < APP/BACE-1 flies [1]; 100, 300, and 500 μM, vs vehicle-fed transgenic flies) was “did not significantly increase the lifespan” and the “median life time (T1/2)” value (elav < APP/BACE-1 flies [1]; 300 and 500 μM) was “did not significantly extend the T1/2”. The pupation rate (elav < APP/BACE-1 flies [2]) was “nearly normal pupation rates”, the emergence of flies (elav < APP/BACE-1 flies [2]; vehicle 76%, elav-Gal4/+ 99%, not significant vs vehicle) was 82–86% and the “reduction in the APP mRNA levels” value (human APP mRNA) was 69–82%.
